Earlier results in patent US20220079967A1, “COMPOSITION FOR IMPROVING VASCULAR ENDOTHELIAL FUNCTION” (SAN-EI GEN F.F.I., INC., priority 2019, published 2022).

System: endothelial function and blood pressure
Conditions: administered to human, also with increased dosage (Bondonno et al. 2016)

In the case of O=c1c(O[C@@H]2O[C@H](CO)[C@@H](O)[C@H](O)[C@H]2O)c(-c2ccc(O)c(O)c2)oc2cc(O)cc(O)c12 [isoquercitrin], the “effect on FMD value” is given as “does not affect” and the “effect on blood pressure” value is given as “does not affect”.
